Measurements published in patent US4303637A, “Medication indicated for ocular hypertension” (priority 1980, dated 1981).

Columns and labels:
[1] = Solubility in distilled water; assay type: physicochemical; conditions: distilled water at 25° C
Text: (§1) The product is removed from the internal mixer and passed through the cooled rolls of a 3×8 inch roller mill to form a 0.8 mm thick film, with portions of the film compression molded between heated plattens of a hydraulic press to form 0.4 mm thick film. The film is cooled, and elliptical ocular shaped devices are punched from the dry film.

[2] = Osmotic pressure of the solute (vapor pressure osmometer); assay type: physicochemical
Text: The osmotic pressure, ATM, of the solute can be measured in a commercially available osmometer that measures the vapor pressure difference between pure water and a solution containing a solute to be analyzed, and according to standard thermodynamic principles, the vapor pressure ratio is converted into an osmotic pressure. An osmometer that can be used for the present measurements is the Model 302B, Vapor Pressure Osmometer, manufactured by the Hewlett Packark Company, Avondale, Pennsylvania.
as §1

[3] = tested on: intraocular pressure associated with glaucoma; conditions: liquid eyedrops; cited from earlier work

Compound	solubility [1] [mg/mL]	osmotic pressure [2] [atm]	lowering of intraocular pressure [3]
COCCc1ccc(OCC(O)CNC(C)C)cc1.O=C(O)C(O)C(O)C(=O)O (racemic) [(±)-1-[4-(2-methoxyethyl)-phenoxy]-3-[(1-methylethyl)amino]-2-propanol tartrate]	860	210	–
CC(C)(C)NC[C@H](O)COc1nsnc1N1CCOCC1 [timolol]	–	–	lowering intraocular pressure associated with glaucoma
